Source: article PMC5830883, “A Functional Signature Ontology (FUSION) screen detects an AMPK inhibitor with selective toxicity toward human colon tumor cells” (Scientific Reports, 2018)

Tests used:
[1] = target: T1, AMPKα1 (recombinant AMPKα1β1γ1) (Homo sapiens, UniProt Q13131); assay: radiometric in vitro kinase assay with SAMS peptide and […]-ATP; Lineweaver-Burk; IC50 […]; format: biochemical
T1 construct: gene PRKAA1; recombinant AMPKα1β1γ1 heterotrimer (#P47-10H, SignalChem); with AMPKβ1, AMPKγ1
T1 sequence (Q13131 whole entry): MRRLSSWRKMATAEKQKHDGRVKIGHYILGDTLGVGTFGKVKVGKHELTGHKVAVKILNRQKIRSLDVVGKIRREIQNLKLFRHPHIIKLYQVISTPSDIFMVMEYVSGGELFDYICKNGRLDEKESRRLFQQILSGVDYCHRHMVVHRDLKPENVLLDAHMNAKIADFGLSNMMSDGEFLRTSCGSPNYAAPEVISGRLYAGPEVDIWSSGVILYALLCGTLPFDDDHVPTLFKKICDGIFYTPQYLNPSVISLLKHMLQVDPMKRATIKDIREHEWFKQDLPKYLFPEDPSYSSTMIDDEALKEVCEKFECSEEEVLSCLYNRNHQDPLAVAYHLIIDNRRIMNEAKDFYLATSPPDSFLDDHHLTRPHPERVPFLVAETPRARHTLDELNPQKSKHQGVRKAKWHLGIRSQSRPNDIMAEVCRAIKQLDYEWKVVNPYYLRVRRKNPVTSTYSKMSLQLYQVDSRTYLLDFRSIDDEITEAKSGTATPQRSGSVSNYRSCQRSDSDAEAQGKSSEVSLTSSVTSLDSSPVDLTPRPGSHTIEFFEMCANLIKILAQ
T1 sequence (Q9Y478 2-270 partner): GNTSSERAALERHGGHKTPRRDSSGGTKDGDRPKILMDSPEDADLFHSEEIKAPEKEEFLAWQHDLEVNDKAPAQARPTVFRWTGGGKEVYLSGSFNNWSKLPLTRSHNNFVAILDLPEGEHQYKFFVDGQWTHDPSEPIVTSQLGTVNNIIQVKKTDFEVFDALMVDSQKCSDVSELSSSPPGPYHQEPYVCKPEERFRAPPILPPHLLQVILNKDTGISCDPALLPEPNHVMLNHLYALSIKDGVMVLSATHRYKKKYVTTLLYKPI
T1 sequence (P54619 whole entry partner): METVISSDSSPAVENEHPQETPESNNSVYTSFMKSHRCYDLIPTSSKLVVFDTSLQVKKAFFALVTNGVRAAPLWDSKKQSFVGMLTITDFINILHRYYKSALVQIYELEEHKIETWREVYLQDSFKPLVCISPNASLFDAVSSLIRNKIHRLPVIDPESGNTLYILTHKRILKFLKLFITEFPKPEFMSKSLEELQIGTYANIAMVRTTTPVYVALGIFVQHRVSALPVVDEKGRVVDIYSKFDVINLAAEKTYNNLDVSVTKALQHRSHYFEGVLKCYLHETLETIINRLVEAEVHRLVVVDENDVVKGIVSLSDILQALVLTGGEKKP

[2] = target: T2, AMPKα2 (recombinant AMPKα2β1γ1) (Homo sapiens, UniProt P54619+P54646+Q9Y478); assay: radiometric in vitro kinase assay with SAMS peptide and […]-ATP; format: biochemical
T2 construct: gene PRKAA2; recombinant AMPKα2β1γ1 heterotrimer (#P48-10H, SignalChem); with AMPKβ1, AMPKγ1
T2 sequence (P54646 whole entry): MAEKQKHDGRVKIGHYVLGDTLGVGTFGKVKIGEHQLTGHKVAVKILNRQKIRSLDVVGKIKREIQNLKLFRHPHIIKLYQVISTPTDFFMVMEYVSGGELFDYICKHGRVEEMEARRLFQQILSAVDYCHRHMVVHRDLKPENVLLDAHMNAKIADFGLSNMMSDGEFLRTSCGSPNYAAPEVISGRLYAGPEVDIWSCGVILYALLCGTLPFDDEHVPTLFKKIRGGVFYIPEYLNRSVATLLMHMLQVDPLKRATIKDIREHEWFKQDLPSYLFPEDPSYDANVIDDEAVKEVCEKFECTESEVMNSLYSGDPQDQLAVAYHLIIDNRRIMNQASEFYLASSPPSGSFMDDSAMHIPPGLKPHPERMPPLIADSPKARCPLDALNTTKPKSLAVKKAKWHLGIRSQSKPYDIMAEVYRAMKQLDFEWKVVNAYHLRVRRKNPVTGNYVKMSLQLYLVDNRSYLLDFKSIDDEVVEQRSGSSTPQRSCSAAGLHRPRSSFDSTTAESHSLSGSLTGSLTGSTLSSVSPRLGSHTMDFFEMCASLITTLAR
T2 sequence (Q9Y478 2-270 partner): as the sequence (Q9Y478 2-270 partner) above
T2 sequence (P54619 whole entry partner): as the sequence (P54619 whole entry partner) above

**Q.** With `CN[C@@H]1C(O)[C@H]2O[C@@](C)([C@@H]1OC)n1c3ccccc3c3c4c(c5c6ccccc6n2c5c31)C(=O)NC4` (some centres unmarked) [5-OH-S, 5′-hydroxy-staurosporine] as the compound, how does the Ki [1] read?
**A.** The Ki was 347 nM.

**Q.** And the IC50 [2]?
**A.** Its IC50 is 583 nM.
